Assay results reported in BigSolDB 2.1.

C=CC(=O)NCO
Details | solubility (mole fraction)
in acetonitrile, 279.15 K | 0.0244
in acetonitrile, 282.05 K | 0.0276
in acetonitrile, 288.15 K | 0.0341
in acetonitrile, 292.75 K | 0.041
in acetonitrile, 298.15 K | 0.0499
in acetonitrile, 304.05 K | 0.0614
in acetonitrile, 308.55 K | 0.0716
in chloroform, 279.65 K | 0.0011
in chloroform, 282.35 K | 0.0013
in chloroform, 286.05 K | 0.0015
in chloroform, 289.85 K | 0.0019
in chloroform, 294.45 K | 0.0023
in chloroform, 299.15 K | 0.0029
in chloroform, 303.25 K | 0.0035
in dichloromethane, 277.55 K | 0.0018
in dichloromethane, 280.35 K | 0.0019
in dichloromethane, 282.95 K | 0.0021
in dichloromethane, 285.55 K | 0.0023
in dichloromethane, 288.15 K | 0.0025
in dichloromethane, 291.75 K | 0.0028
in ethyl acetate, 278.55 K | 0.0109
in ethyl acetate, 281.85 K | 0.0127
in ethyl acetate, 285.05 K | 0.0146
in ethyl acetate, 289.15 K | 0.0176
in ethyl acetate, 296.95 K | 0.0248
in ethyl acetate, 300.95 K | 0.0294
in ethyl acetate, 305.05 K | 0.0351
in furan, 278.55 K | 0.0445
in furan, 282.05 K | 0.0515
in furan, 284.45 K | 0.0574
in furan, 288.25 K | 0.0683
in furan, 291.45 K | 0.0789
in furan, 294.85 K | 0.0919
in furan, 297.25 K | 0.102
in n-butyl acetate, 278.05 K | 0.0037
in n-butyl acetate, 281.15 K | 0.0045
in n-butyl acetate, 284.35 K | 0.0055
in n-butyl acetate, 288.95 K | 0.0073
in n-butyl acetate, 292.05 K | 0.0087
in n-butyl acetate, 295.35 K | 0.0105
in n-butyl acetate, 301.45 K | 0.0148
in pyridine, 278.55 K | 0.232
in pyridine, 281.35 K | 0.245
in pyridine, 286.95 K | 0.272
in pyridine, 292.25 K | 0.303
in pyridine, 297.95 K | 0.339
in pyridine, 302.15 K | 0.367
in pyridine, 306.25 K | 0.401
in toluene, 279.75 K | 0.0004
in toluene, 284.35 K | 0.0006
in toluene, 287.95 K | 0.0008
in toluene, 291.55 K | 0.0009
in toluene, 294.95 K | 0.0011
in toluene, 298.55 K | 0.0014
in toluene, 305.35 K | 0.002
